According to BigSolDB 2.1:

COc1cc(/C=C/C(=O)O)cc(OC)c1OC
solubility (mole fraction) (in acetone, 278.15 K): 0.0175 | solubility (mole fraction) (in acetone, 283.15 K): 0.0201 | solubility (mole fraction) (in acetone, 288.15 K): 0.0232 | solubility (mole fraction) (in acetone, 293.15 K): 0.0265 | solubility (mole fraction) (in acetone, 298.15 K): 0.0301 | solubility (mole fraction) (in acetone, 303.15 K): 0.0343 | solubility (mole fraction) (in acetone, 308.15 K): 0.0391 | solubility (mole fraction) (in acetone, 313.15 K): 0.044 | solubility (mole fraction) (in acetone, 318.15 K): 0.0492 | solubility (mole fraction) (in acetone, 323.15 K): 0.0551 | solubility (mole fraction) (in ethanol, 278.15 K): 0.00626 | solubility (mole fraction) (in ethanol, 283.15 K): 0.0085 | solubility (mole fraction) (in ethanol, 288.15 K): 0.0114 | solubility (mole fraction) (in ethanol, 293.15 K): 0.0153 | solubility (mole fraction) (in ethanol, 298.15 K): 0.0201 | solubility (mole fraction) (in ethanol, 303.15 K): 0.0261 | solubility (mole fraction) (in ethanol, 308.15 K): 0.0341 | solubility (mole fraction) (in ethanol, 313.15 K): 0.044 | solubility (mole fraction) (in ethanol, 318.15 K): 0.057 | solubility (mole fraction) (in ethanol, 323.15 K): 0.0725 | solubility (mole fraction) (in isopropanol, 278.15 K): 0.00465 | solubility (mole fraction) (in isopropanol, 283.15 K): 0.0063 | solubility (mole fraction) (in isopropanol, 288.15 K): 0.00867 | solubility (mole fraction) (in isopropanol, 293.15 K): 0.0121 | solubility (mole fraction) (in isopropanol, 298.15 K): 0.0163 | solubility (mole fraction) (in isopropanol, 303.15 K): 0.0215 | solubility (mole fraction) (in isopropanol, 308.15 K): 0.0289 | solubility (mole fraction) (in isopropanol, 313.15 K): 0.039 | solubility (mole fraction) (in isopropanol, 318.15 K): 0.0511 | solubility (mole fraction) (in isopropanol, 323.15 K): 0.0665 | solubility (mole fraction) (in methanol, 278.15 K): 0.00662 | solubility (mole fraction) (in methanol, 283.15 K): 0.00922 | solubility (mole fraction) (in methanol, 288.15 K): 0.0127 | solubility (mole fraction) (in methanol, 293.15 K): 0.0175 | solubility (mole fraction) (in methanol, 298.15 K): 0.0236 | solubility (mole fraction) (in methanol, 303.15 K): 0.0315 | solubility (mole fraction) (in methanol, 308.15 K): 0.0417 | solubility (mole fraction) (in methanol, 313.15 K): 0.0548 | solubility (mole fraction) (in methanol, 318.15 K): 0.0717 | solubility (mole fraction) (in methanol, 323.15 K): 0.0943 | solubility (mole fraction) (in water, 278.15 K): 4.67e-05 | solubility (mole fraction) (in water, 283.15 K): 5.3e-05 | solubility (mole fraction) (in water, 288.15 K): 6.05e-05 | solubility (mole fraction) (in water, 293.15 K): 6.8e-05 | solubility (mole fraction) (in water, 298.15 K): 7.61e-05 | solubility (mole fraction) (in water, 303.15 K): 8.55e-05 | solubility (mole fraction) (in water, 308.15 K): 9.58e-05 | solubility (mole fraction) (in water, 313.15 K): 0.000107 | solubility (mole fraction) (in water, 318.15 K): 0.000118 | solubility (mole fraction) (in water, 323.15 K): 0.000131
